Reference: ChEMBL document CHEMBL5154930, “Design, Synthesis, and Biological Evaluations of DOT1L Peptide Mimetics Targeting the Protein-Protein Interactions between DOT1L and MLL-AF9/MLL-ENL” (J Med Chem, 2022)
Non-standard residues stand in square brackets, D forms with d. Residues, ends and D or L forms follow the SMILES beside them. *: point of attachment. X2 = c1ccc(-c2cn(CC3CCCCC3)c([C@@H]3CCCN3*)n2)cc1; Ala(cPent) = N[C@@H](CC1CCCC1)C(=O)O; Pentanoyl(4-Me) = CC(C)CCC(=O)*; Dap = NC[C@H](N)C(=O)O

Experiments:
[1] = target: T1, Protein ENL (Homo sapiens, UniProt Q03111); assay: Binding affinity to MBP-tagged human recombinant ENL (489 to 559 residues) incubated for 40 mins by measuring fluorescence polarization by microplate reader method
T1 sequence (Q03111 whole entry): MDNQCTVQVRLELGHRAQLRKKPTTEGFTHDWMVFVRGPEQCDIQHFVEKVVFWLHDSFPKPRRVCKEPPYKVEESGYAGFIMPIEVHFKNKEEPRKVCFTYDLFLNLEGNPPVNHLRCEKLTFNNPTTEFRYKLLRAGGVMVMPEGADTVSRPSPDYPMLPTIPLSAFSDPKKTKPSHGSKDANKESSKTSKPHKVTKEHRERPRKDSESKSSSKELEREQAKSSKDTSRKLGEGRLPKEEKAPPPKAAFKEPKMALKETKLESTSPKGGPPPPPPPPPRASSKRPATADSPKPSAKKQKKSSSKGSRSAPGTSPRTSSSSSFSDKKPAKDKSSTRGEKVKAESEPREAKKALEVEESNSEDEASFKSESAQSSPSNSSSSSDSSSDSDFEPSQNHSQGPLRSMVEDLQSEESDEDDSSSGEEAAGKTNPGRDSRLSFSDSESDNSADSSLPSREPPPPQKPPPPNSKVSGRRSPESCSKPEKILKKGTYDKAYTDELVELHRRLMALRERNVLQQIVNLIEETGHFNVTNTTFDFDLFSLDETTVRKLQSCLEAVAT

[2] = tested on: MOLM-13; assay: cells; details: Homo sapiens, MOLM-13, 192 h
Description: Anticancer activity against human MOLM-13 cells harbouring MLL-AF9 assessed as inhibition of cell growth treated for 8 days measured by CCK-8 kit method

[3] = tested on: KOPN-8; assay: cells; details: Homo sapiens, KOPN-8, 192 h
Description: Anticancer activity against human KOPN-8 cells harbouring MLL-ENL assessed as inhibition of cell growth treated for 8 days measured by CCK-8 kit method

[4] = Apparent permeability across apical to basolateral side in human Caco-2 cells; format: ADME, cell-based
[5] = Stability in human plasma assessed as compound remaining measured upto 1440 mins by HPLC analysis; format: ADME, cell-free; details: read-out: Stability

SMILES: CC(C)CCC(=O)N1CCC[C@H]1C(=O)N[C@H](C(=O)N[C@@H](CN)C(=O)N[C@@H](CC1CCCC1)C(=O)N1CCC[C@H]1c1nc(-c2ccccc2)cn1CC1CCCCC1)C(C)C ({Pentanoyl(4-Me)}-PV[Dap][Ala(cPent)]-X2)
- Ki [1]: 240 nM
- IC50 [2]: 3200 nM
- IC50 [3]: 2210 nM
- Papp A→B [4]: 0.73 ×10⁻⁶ cm/s
- remaining at 24 h [5]: 94%
